Measured values from ChEMBL document CHEMBL1131516, “Sialyl Lewis X-polysaccharide conjugates: targeting inflammatory lesions” (Bioorg Med Chem Lett, 1998).

Target: T1, E-selectin (Rattus norvegicus, UniProt P98105)
T1 sequence (P98105 whole entry): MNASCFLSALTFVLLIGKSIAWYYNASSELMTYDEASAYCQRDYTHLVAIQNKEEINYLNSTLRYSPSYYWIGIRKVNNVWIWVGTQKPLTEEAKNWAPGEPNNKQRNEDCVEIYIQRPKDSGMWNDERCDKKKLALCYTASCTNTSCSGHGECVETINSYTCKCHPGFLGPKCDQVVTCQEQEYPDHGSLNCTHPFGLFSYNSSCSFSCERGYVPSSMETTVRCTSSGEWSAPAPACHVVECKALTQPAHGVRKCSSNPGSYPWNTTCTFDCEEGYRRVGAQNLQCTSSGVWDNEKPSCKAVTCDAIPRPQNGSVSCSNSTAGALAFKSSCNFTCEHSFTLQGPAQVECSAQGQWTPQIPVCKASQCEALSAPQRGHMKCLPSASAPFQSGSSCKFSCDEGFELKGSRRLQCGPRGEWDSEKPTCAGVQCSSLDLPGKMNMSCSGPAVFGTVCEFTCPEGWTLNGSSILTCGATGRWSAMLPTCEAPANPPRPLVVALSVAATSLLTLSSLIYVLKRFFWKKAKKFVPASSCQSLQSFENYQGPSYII
Test: Inhibitory concentration against Selectin E expressed at the inflammatory lesion was measured by inhibition of leukocyte rolling in the inflammatory model using IL-lbeta activated rat mesentery venules. (In vivo )
Assay type: organism-based

IC50: 2.63 µM
Compound: CCOCCOCCOCCOCCOCCO[C@@H]1O[C@@H](CO)[C@@H](O[C@@H]2O[C@@H](CO)[C@H](O)[C@H](O[C@]3(C(=O)O)C[C@@H](O)[C@@H](NC(C)=O)[C@H]([C@H](O)[C@H](O)CO)O3)[C@@H]2O)[C@H](O[C@@H]2O[C@@H](C)[C@@H](O)[C@H](O)[C@@H]2O)[C@@H]1NC(C)=O
